Where two headings read alike, the source gives them in different places.
Experiments:
Test in all cases: microbe, parasite or virus in culture
[1] = test system: HIV strain IIIB (wild type); settings: for pSI (IIIB) (-log SI; SI = ratio of CC50 to EC50): strain IIIB, CC50 in mock-infected MT4 CMV-EGFP cells
Protocol: Compounds of the invention were tested for their potency against wild type virus and clinically isolated HIV strains harboring one or more mutations associated with resistance to reverse transcriptase inhibitors. Antiviral activity was evaluated using a cellular assay performed according to the following procedure.
The human T-cell line MT4 was engineered with Green Fluorescent Protein (GFP) and a HIV-specific promoter, HIV-1 long terminal repeat (LTR). This cell line, designated MT4 LTR-EGFP, can be used for the in vitro evaluation of anti-HIV activity of investigational compounds. In HIV-1 infected cells, the Tat protein is produced, which upregulates the LTR promotor and eventually leads to stimulation of the GFP reporter production, allowing to measure ongoing HIV-infection fluorometrically.
Analogously, MT4 cells were engineered with GFP and the constitutional cytomegalovirus (CMV) promotor. This cell line was designated MT4 CMV-EGFP, and can be used for the in vitro evaluation of cytotoxicity of investigational compounds. […] Cytotoxic investigational compounds reduce GFP levels of mock-infected MT4 CMV-EGFP cells.
The ratio of CC50 to EC50 is defined as the selectivity index (SI) and is an indication of the selectivity of the anti-HIV activity of the inhibitor. The ultimate monitoring of HIV-1 infection and cytotoxicity was done using a scanning microscope. […] Measurements were done before cell necrosis, which usually takes place about five days after infection, in particular measurements were performed three days after infection.
The columns IIIB, L100I, etc. in the table list the pEC50 (−log EC50) values against various strains IIIB, L100I, etc.; pSI lists the −log SI values.
Strain IIIB is wild type HIV strain.

[2] = target: HIV strain MDR (L100I, K103N, Y181C, E138G, V1791, L2214F, V278V/I and A327A/V in HIV reverse transcriptase); assay type: cell-based, HIV-1; settings: MDR strain; MT4 LTR-EGFP cells
Description: (§1) Image analysis allowed very sensitive detection of viral infection.
“MDR” refers to a strain that contains mutations L100I, K103N, Y181C, E138G, V1791, L2214F, V278V/I and A327A/V in HIV reverse transcriptase.

[3] = test system: HIV strain L100I + K103N; assay type: cell-based, HIV-1; settings: L100I + K103N strain; MT4 LTR-EGFP cells
Description: as §1

[4] = wild type HIV strain IIIB, MT4 LTR-EGFP cells, three days after infection

| Structure (SMILES) | pSI (IIIB) (-log SI; SI = ratio of CC50 to EC50) [1] | IIIB pEC50 (-log EC50) [1, 4] | MDR pEC50 (-log EC50) [2] | L100I + K103N pEC50 (-log EC50) [3] | IIIB pEC50 (-log EC50) [1] |
| --- | --- | --- | --- | --- | --- |
| COCc1nc(Nc2ccc(C#N)cc2)nc(Nc2c(C)cc(C=CC#N)cc2C)c1C(=O)NCc1cccnc1 (mixture of isomers) [Compound 8] | 3.13 | 8.54 | 7.07 | 7.57 |  |
| COCc1nc(Nc2ccc(C#N)cc2)nc(Nc2c(C)cc(C=CC#N)cc2C)c1C(=O)NCC1CCCO1 (mixture of isomers) [Compound 9] | 3.55 | 8.28 | 6.45 | 7.26 |  |
| COCCNC(=O)c1c(COC)nc(Nc2ccc(C#N)cc2)nc1Nc1c(C)cc(C=CC#N)cc1C (mixture of isomers) [Compound 10] | 3.44 | 8.46 | 7.30 | 8.10 |  |
| COCc1nc(Nc2ccc(C#N)cc2)nc(Nc2c(C)cc(C=CC#N)cc2C)c1C(=O)NCc1ccncc1 (mixture of isomers) [Compound 11] | 3.59 | 8.47 | 7.24 | 7.43 |  |
| COCc1nc(Nc2ccc(C#N)cc2)nc(Nc2c(C)cc(C=CC#N)cc2C)c1C(=O)NCCNC(C)=O (mixture of isomers) [Compound 12] | 3.59 | 8.25 | 6.68 | 7.42 |  |
| COCc1nc(Nc2ccc(C#N)cc2)nc(Nc2c(C)cc(C=CC#N)cc2C)c1C(=O)NCCN1CCOCC1 (mixture of isomers) [Compound 14] | 3.70 | 8.41 | 6.42 | 6.67 |  |
| COCc1nc(Nc2ccc(C#N)cc2)nc(Nc2c(C)cc(C=CC#N)cc2C)c1C(=O)NCCC#N (mixture of isomers) [Compound 16] | 4.22 | 8.90 | 7.03 | 7.55 |  |
| COCc1nc(Nc2ccc(C#N)cc2)nc(Nc2c(C)cc(C=CC#N)cc2C)c1C(=O)NCc1cccs1 (mixture of isomers) [Compound 18] | >3.63 | 8.23 | 6.42 | 6.97 |  |
| COCc1nc(Nc2ccc(C#N)cc2)nc(Nc2c(C)cc(C=CC#N)cc2C)c1C(=O)N(C)CCN(C)C (mixture of isomers) [Compound 21] | 2.53 | 7.49 | 5.44 | 6.31 |  |
| COCc1nc(Nc2ccc(C#N)cc2)nc(Nc2c(C)cc(C=CC#N)cc2C)c1C(=O)N1CCCC(C(N)=O)C1 (mixture of isomers) [Compound 22] | >2.66 | 7.27 | 5.64 | 6.22 |  |
| COCc1nc(Nc2ccc(C#N)cc2)nc(Nc2c(C)cc(C=CC#N)cc2C)c1C(=O)N(C)OC (mixture of isomers) [Compound 25] | 4.02 | 8.72 | 6.27 | 7.19 |  |
| COCc1nc(Nc2ccc(C#N)cc2)nc(Nc2c(C)cc(C=CC#N)cc2C)c1C(=O)N1CCC(O)CC1 (mixture of isomers) [Compound 27] | >3.61 | 8.21 | 5.21 | 5.79 |  |
| COCc1nc(Nc2ccc(C#N)cc2)nc(Nc2c(C)cc(C=CC#N)cc2C)c1C(=O)NCCc1ccc(S(N)(=O)=O)cc1 (mixture of isomers) [Compound 29] | >3.23 | 7.83 | 6.72 | 7.01 |  |
| COCCNC(=O)c1c(COC)nc(Nc2ccc(C#N)cc2)nc1Nc1c(C)cc(C=C(C)C#N)cc1C (mixture of isomers) [Compound 32] |  | 8.48 | 7.05 | 7.80 |  |
| COCc1nc(Nc2ccc(C#N)cc2)nc(Oc2c(C)cc(C=CC#N)cc2C)c1C(=O)NCc1ccncc1 (mixture of isomers) [Compound 33] | 3.54 | 8.40 | 5.91 | 7.03 |  |
| COCc1nc(Nc2ccc(C#N)cc2)nc(Oc2c(C)cc(C=C(C)C#N)cc2C)c1C(=O)NCc1ccncc1 (mixture of isomers) [Compound 34] | 3.22 | 8.38 | 5.81 | 6.49 |  |
| COCCNC(=O)c1c(COC)nc(Nc2ccc(C#N)cc2)nc1Oc1c(C)cc(C=CC#N)cc1C (mixture of isomers) [Compound 35] | 3.76 | 8.54 | 6.18 | 7.09 |  |
| COCc1nc(Nc2ccc(C#N)cc2)nc(Nc2c(C)cc(/C=C/C#N)cc2C)c1C(=O)NCCN(C)C [Compound 13] | 3.32 | 8.41 | 5.69 | 6.81 |  |
| COCc1nc(Nc2ccc(C#N)cc2)nc(Nc2c(C)cc(/C=C/C#N)cc2C)c1C(=O)NCCc1ccccn1 [Compound 15] | 3.52 | 8.55 | 6.43 | 7.24 |  |
| COCc1nc(Nc2ccc(C#N)cc2)nc(Nc2c(C)cc(/C=C/C#N)cc2C)c1C(=O)N1CCN(CCO)CC1 [Compound 17] | >2.83 | 7.43 | 5.19 | 6.59 |  |
| COCc1nc(Nc2ccc(C#N)cc2)nc(Nc2c(C)cc(/C=C/C#N)cc2C)c1C(=O)NCC(OC)OC [Compound 19] | 3.83 | 8.59 | 6.97 | 7.38 |  |
| COCc1nc(Nc2ccc(C#N)cc2)nc(Nc2c(C)cc(/C=C/C#N)cc2C)c1C(=O)NCc1ccccn1 [Compound 20] | 3.81 | 8.83 | 7.03 | 7.28 |  |
| COCc1nc(Nc2ccc(C#N)cc2)nc(Nc2c(C)cc(/C=C/C#N)cc2C)c1C(=O)NC1CC1 [Compound 23] | 3.87 | 8.62 | 6.85 | 7.81 |  |
| C=CCNC(=O)c1c(COC)nc(Nc2ccc(C#N)cc2)nc1Nc1c(C)cc(/C=C/C#N)cc1C [Compound 24] |  |  | 6.72 | 7.99 | 8.66 |
| COCc1nc(Nc2ccc(C#N)cc2)nc(Nc2c(C)cc(/C=C/C#N)cc2C)c1C(=O)NCCc1cccs1 [Compound 30] | >3.24 | 7.84 | 5.79 | 6.67 |  |
